The subject of one data set is serum protein. Kind of data set: Serum protein binding. Format: in vitro ADME. As to conditions: serum; protocol modified from Hensbergen et al. [34]; mean ± spread. As for the experimental part: (§1) The molar extinction coefficient (ε), quantum yield (QY), brightness, lipophilicity, serum protein binding, photo- and chemical stability, and stacking behavior were determined according to a slight modification of the protocol put forward by Hensbergen et al.. Sulfonate-(SO3)Cy5(SO3)-COOH [27] was measured and used as a control for QY.

Assay in data set [1]: not given
The source holds these as a separate data set.

The nature of data set [2]: Photostability (photobleaching). Format: physicochemical. The following applies: illumination in 5 min cycles, 30 min in total, Storz D-Light P system at 50 mm, fluorescence read-out. As to the method: as §1
For photostability measurements, the cuvettes were sealed and illuminated for 5 min (30 min in total) by a modified Storz D-Light P fluorescence imaging system at a distance of 50 mm in a dark environment. After each illumination cycle, the fluorescence intensity was determined.

The test system of another data set is RT4-D12 Schwannoma cells. Kind of data set: Fluorescence confocal microscopy of P0 staining. Format: cell-based. As to conditions: 1 h at 4 °C. As to the method: RT4-D12 Schwannoma cells were trypsinized and seeded onto 35 mm culture dishes that contained a glass insert (MatTek co, Emu Plains, New South Wales, Australia) two days prior to the imaging experiment. Then, 0.5–1000 nM Cy5-P0_101–125 or Cy5-(P0_101–125)2 was added one hour prior to imaging (incubation at 4 °C; n = 3 per tracer). Peptide solutions were sonicated for 20 s prior to addition to prevent aggregation of the peptide in solution. Lysotracker (lysotracker green; 2 µL/mL DND-26, Thermo Fisher, Waltham, MA, USA) and Hoechst (33,342, 1 mg/mL, 1:500, Thermo Fisher) were added to the to provide staining of lysosomes and the nucleus, respectively.
Images were acquired following Cy5 excitation at 633 nm. Emission was collected between 650–700 nm. For visualization of the lysosomes in the cells, a 488 nm laser was used for excitation, while emission was collected between 500–550 nm. Hoechst was excited at 405 nm, and emission was collected between 410–460 nm. Fluorescence confocal images were acquired using a Leica SP8 WL at sequential settings and 63× magnification. Image analysis was performed using Leica Confocal Software (Leica Microsystems). Semi-quantitative analysis of the Cy5 signal intensity was performed using the quantification tool in Fiji software according to previously described methods.

Assay in data set [3]: not given
This is another data set of the same source.

Data set [4] can be described thus: Stacking behavior (absorbance spectra, dilution series). Format: physicochemical. The following applies: absorbance spectra in water, dilution series 8 μM to 0.5 μM, normalized. As for the experimental part: as §1
To determine the stacking behavior of the mono- and bi-labeled compounds and their corresponding dyes, a dilution series of Cy5-(P0_101–125)2 and Cy5-P0_101–125 were made, consisting of the dye concentrations ranging from 8 μM to 0.5 μM.
Normalization of the data set for stacking behavior was performed using Equation (1):(1) x(normalized)=(x−xmin)/range of x where range of x= xmax−xmin .

In the next data set the target is T1, myelin protein zero (P0) (Rattus norvegicus, UniProt P06907).
T1 construct: RT4-D12 Schwannoma cells were selected for in vitro experiments based on their origin and their specific P0-expressing properties; endogenous in cells; host or cells: RT4-D12 Schwannoma cells
T1 sequence (P06907 30-248): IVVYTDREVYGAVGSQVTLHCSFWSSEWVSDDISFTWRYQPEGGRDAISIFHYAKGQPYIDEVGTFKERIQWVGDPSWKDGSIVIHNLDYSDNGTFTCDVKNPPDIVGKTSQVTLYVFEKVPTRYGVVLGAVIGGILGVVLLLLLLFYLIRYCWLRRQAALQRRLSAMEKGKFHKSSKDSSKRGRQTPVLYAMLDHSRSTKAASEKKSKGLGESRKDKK
The experiment in a line: Saturation binding by flow cytometry on P0-expressing Schwannoma cells. As to conditions: flow cytometry. As to the method: RT4-D12 Schwannoma cells were selected for in vitro experiments based on their origin and their specific P0-expressing properties.
All chemicals were received from Actu-All Chemical (Oss, The Netherlands), Sigma Aldrich (St. Louis, MO, USA), Tokyo Chemical Industry (Tokyo, Japan), Biosolve BV (Valkenswaard, The Netherlands), VWR Chemicals (Solon, OH, USA) and used without further purification. DMF and DMSO were dried over four Å molecular sieves at least for 24 h prior to use. Preparative high-pressure liquid chromatography (prep-HPLC) was performed on a Waters HPLC system (Waters Chromatography B.V., Etten-Leur, The Netherlands) using a 2545 quaternary gradient module pump and a 2489 UV detector. Dr. Maisch ReproSil-Pur 120 C18-AQ 10 μM (250 mm × 20 mm) column (Dr. Maisch HPLC GmbH, Ammerbuch-Entringen, Germany) was applied operating flow rate of 12 mL/min. HPLC analysis was carried out on Waters Alliance 2690 using a Waters symmetry C18 column (2.1 × 150 mm) with a gradient of 0.1% TFA in H2O/MeCN 95:5 to 0.1% TFA in H2O/MeCN 5:95 in 17 min (0.3 mL/min). Mass spectrometry was performed on a Microflex LT/SH MALDI-TOF mass spectrometer (Bruker, Billerica, MA, USA). Lyophilization was performed with a VaCo 2-II lyophilizer (Zirbus technology GmbH, Bad Grund (Harz), Germany). Absorption spectrometry was performed using a UV1280 UV–vis spectrometer (Shimadzu, Kyoto, Japan), and fluorescence spectrometry was performed using an LS55 (Perkin Elmer, Waltham, MA, USA). The fluorescence spectra at different temperatures were measured on an Agilent Cary Eclipse (Agilent Cary Eclipse, Santa Clara, CA, USA). NMR spectra were measured on a Bruker Avance 300 (Bruker, Billerica, MA, USA) operating at 300 MHz for 1 H and 75.00 MHz for 13 C, using the residual solvents (CDCl3 and DMSO-d6) as internal references, and on a Bruker Advance III spectrometer operating at 600 MHz for 1H and equipped with a 2.5 mm PH SEI probe (Bruker, Billerica, MA, USA). For photostability, a prototype D-Light P surgical laparoscope (KARL STORZ, Tuttlingen, Germany) was used. Fluorescence confocal imaging was performed using a SP8 WLL confocal microscope (Leica Microsystems, Wetzlar, Germany). Obtained images were analyzed using Leica Confocal Software (Leica Microsystems). Mean fluorescence intensity values per sample were measured using a LSRII flow cytometer (BD Biosciences, Franklin Lakes, NJ, USA) with APC-A settings (635 nm laser and 750 nm long-pass filter). The binding constant (KD) of the normalized geometric means were fitted with equations in the Prism 5 software (GraphPad, San Diego, CA, USA). Statistical evaluation (Student’s t-test) for all properties was performed in the Prism 5 software. […]
Flow cytometric analysis was performed using RT4-D12 Schwannoma cells after incubation with either Cy5-P0_101–125 or Cy5-(P0_101–125)2. […] Cells were gated on Forward Scatter and Side Scatter, and a minimum of 10,000 viable cells were analyzed per sample. […]
For evaluation of the differences in signal intensity per concentration between Cy5-P0_101–125 and Cy5-(P0_101–125)2 (5–1000 nM), the mean signal intensity of Cy5-P0_101–125 at 1000nM was set at 100%, and intensities measured at other tracer concentrations or for Cy5-(P0_101–125)2 were calculated as % increase or decrease from this point. The KD values of the evaluated peptides were calculated using the “Binding-Saturation, One site—Total” nonlinear regression equation, as described previously.
Background: A flow cytometer gives signals particle by particle.

Assay in data set [5]: not given
This is another data set of the same source.

Assay in data set [6]: not given
The source holds these as a separate data set.

The next data set is described as follows: Serum protein binding. In kind it is in vitro ADME. The following applies: protocol modified from Hensbergen et al. [34]; mean ± spread. As to the method:
as §1

Data set [7] in a line: Stability towards glutathione. In kind it is physicochemical. As to conditions: 2 mM compound mixed 1:1 with 4 mM reduced glutathione, 0.1 M HEPES pH 7.4 (N2 sparged), 37 degrees, amount relative to t = 0. As for the experimental part: For the stability towards glutathione, which is used as a measure of stability towards thiols and amines in vivo, 125 µL of a 2 mM solution of the compound in (0.1 M HEPES pH 7.4, pre-sparged with N2) was added to 125 µL of a 4 mM solution of reduced glutathione in 0.1M HEPES pH 7.4 (pre-sparged with N2). The solutions were mixed and then placed in a sample manager. A sample was analyzed at 37 degrees over 6 h in total to determine the amount of compound relative to t = 0.

A short description of another data set: Lipophilicity logP(o/w). Format: physicochemical. As to conditions: octanol/water; protocol modified from Hensbergen et al. [34]; mean ± spread. As for the experimental part:
as §1

The conditions of data set [8]: free dye; previously reported; ref Spa et al. [27]; cited from earlier work. The source says:
Table 1 Chemo- and photophysical properties of mono-labeled Cy5-P0_101–125 and bi- labeled Cy5-(P0_101–125)2 and corresponding free cyanine dyes. | column: Sulfonate-(SO3)Cy5(SO3)-COOH *

Entries after “also recorded” stand apart in the source; their conditions may differ. Like-named read-outs stand apart in the source and are kept apart here. Residues, ends and D or L forms follow the SMILES beside them. *: point of attachment. X2 = CC1(C)C(=C/C=C/C=C/C2=[N+](CCCCS(=O)(=O)O)c3ccc(S(=O)(=O)[O-])cc3C2(C)C)N(CCCCCC(=O)NCCN2C(=O)CC(*)C2=O)c2ccc(S(=O)(=O)O)cc21

As a reminder, the fraction unbound is the share of the substance not bound to proteins or other matrix. The Kd is the free concentration of one partner at which half of the binding sites on the other are occupied at equilibrium, for simple one-to-one binding. A low value points to tighter binding. In the case of `CC[C@H](C)[C@H](NC(=O)[C@H](CC(=O)O)NC(=O)[C@@H]1CCCN1C(=O)[C@@H]1CCCN1C(=O)[C@H](CC(N)=O)NC(=O)[C@H](CCCCN)NC(C)=O)C(=O)N[C@H](C(=O)NCC(=O)N[C@@H](CCCCN)C(=O)N[C@H](C(=O)N[C@@H](CO)C(=O)N[C@@H](CCC(N)=O)C(=O)N[C@H](C(=O)N[C@H](C(=O)N[C@@H](CC(C)C)C(=O)N[C@@H](Cc1ccc(O)cc1)C(=O)N[C@H](C(=O)N[C@@H](Cc1ccccc1)C(=O)N[C@@H](CCC(=O)O)C(=O)N[C@@H](CCCCN)C(=O)N[C@H](C(=O)N1CCC[C@H]1C(=O)N[C@H](C(=O)N[C@@H](CCCNC(=N)N)C(=O)N[C@@H](Cc1ccc(O)cc1)C(=O)N[C@@H](CSC1CC(=O)N(CCNC(=O)CCCCCN2C(=C/C=C/C=C/C3=[N+](CCCCS(=O)(=O)O)c4ccc(S(=O)(=O)[O-])cc4C3(C)C)C(C)(C)c3cc(S(=O)(=O)O)ccc32)C1=O)C(N)=O)[C@@H](C)O)C(C)C)C(C)C)[C@@H](C)O)C(C)C)[C@@H](C)O)C(C)C` (some centres unmarked) [Cy5-P0_101–125] (Ac-KNPPDIVGKTSQVTLYVFEKVPTRYC(X2)-NH2), the loss of fluorescence intensity with temperature increase was determined as 70%. The compound further gave a fraction unbound in the data set with serum protein of 0.11. Moreover, the λEm in H2O/PBS in data set [1] is 671 nm. For the same compound, in [2], the “Photobleaching, %” value came out at 94%. In addition, in the data set on RT4-D12 Schwannoma cells, the “P0-related staining at 100 nM tracer” value is listed as “Only a faint P0-related signal”. The λex in H2O/PBS in [3] came out at 650 nm. Besides, the “stacking behavior (dye stacking / aggregation)” value in [4] was “higher “shoulder peak”; also recorded: typical “stacking shoulder” appears only for a mono-labeled Cy5-P0_101–125 at higher concentration”. On myelin protein zero (P0) (saturation binding fit, RT4-D12 cells), this compound came in with a Nonspecific binding of 0.020. This compound had a Kd at myelin protein zero (P0) (saturation binding, RT4-D12 Schwannoma cells, 0–2000 nM tracer in 0.1% BSA in PBS, 1 h at 4 °C, triplicate, One site—Total fit) of 105 nM. In data set [5], this compound registered a Brightness in PBS of 55.7 M⁻¹ cm⁻¹. Further, the stokes shift in data set [6] is 21 nm.
In the case of “COOH-(SO3)Cy5(SO3)-COOH [reference compound]”, the “Serum protein binding, %” value in “Serum protein binding” is reported as 70 ± 4%. Also, in data set [2], the “Photobleaching, %” value is 95%. Besides, in [7], the “Glutathione stability (at 6 h), %” value is on record as 95%. The “logP(o/w)” value in the data set “Lipophilicity logP(o/w)” is listed as −1.62 ± 0.01.
Regarding Sulfonate-(SO3)Cy5(SO3)-COOH, in [8], the “Glutathione stability (at 6 h), %” value is listed as 95%; the Net charge is listed as −2; the “Photobleaching, %” value is 93%; the “Serum protein binding, %” value is reported as 49 ± 8%. For the same compound, in data set [8], the “logP(o/w)” value is reported as −1.42 ± 0.00.

These data come from PMC9786614, “Nerve Targeting via Myelin Protein Zero and the Impact of Dimerization on Binding Affinity” (Molecules, 2022).
